Reference: patent US11897796B2, “Compositions of heterocyclic compounds and uses as sulfidogenesis inhibitors” (ChampionX USA Inc., priority 2020, dated 2024)
Like-named read-outs stand apart in the source and are kept apart here.

Tests used:
[1] = system: sulfur-utilizing prokaryotes; details: after 8 weeks; for Average reduction in biogenic sulfide: compared to untreated; for Average Sulfide: field water, 37° C.
Procedure: Sample Preparation and Test Conditions. Field water samples were collected and shipped under anoxic conditions. Prior to setting up the bottle test, the water was sparged with carbon dioxide in a nitrogen environment overnight to remove the existing hydrogen sulfide. The water sample was then supplemented with 50 mg/L acetate, 5 mg/L propionate, and 5 mg/L butyrate and trace elements and vitamins. Fluids (100 mL) were aliquoted into 125 mL glass serum bottles containing a carbon steel 1018 ball bearing. Triplicate experiments were performed. Three bottles were left untreated and three bottles were treated each with 50 ppm and 80 ppm of the desired chemistry. Samples were incubated at 37° C. for 8 weeks.
(§1) A sulfide test kit (Code 4456-01, available from LaMotte) was used to test the efficacy of 3,3′-methylenebis[5-methyloxazolidine]

[2] = system: sulfate reducing microorganisms
Procedure: Sample preparation and test conditions. The sulfidogenesis inhibitor MBO was tested using a pressurized bioreactor system. Two sand packed bioreactors were used to establish a sour population of sulfate reducing microorganisms with a seawater mixture for one month. The pressurized bioreactors maintained a flow rate of 0.05 mL/minute and were held at a temperature of 30° C. and a pressure of 1000 psig. Once both bioreactors contained sufficient sulfide in the effluent, one bioreactor remained untreated (control bioreactor) and the other bioreactor was dosed with MBO (test bioreactor) throughout the remaining four months of the study. The sulfide levels were measured in the control and test bioreactors weekly. MBO was dosed continuously in increasing increments at 25, 50, 100, and 150 ppm for roughly five weeks of the experiment. Next, a 4-hour batch treatment of MBO at 500 ppm was also tested twice followed by a low continuous dosage of MBO at 80 ppm and 100 ppm, respectively. The pH of the system was then decreased from 8.5 to 7.5 and then 7.5 to 6.5 to observe the effect of pH on MBO's efficacy at inhibiting sulfidogenesis. Once the pH of the bioreactor had stabilized at 6.5, MBO was dosed continuously in decreasing increments at 150 ppm, 100 ppm, 80 ppm and 50 ppm. At the end of the study, the dosing of MBO was ceased to monitor when sulfide levels would return in the test bioreactor.
The pH measured in the system and the dosage of MBO throughout the study is recorded as well.

[3] = system: sulfur-utilizing prokaryotes; details: after 6 weeks; for Average Sulfide: Source 2 field water, 37° C.
Procedure: Sample Preparation and Test Conditions. Field water samples were treated with additional organic acids (e.g., Source 2) and were collected and shipped under anoxic conditions. Prior to setting up the bottle test, the water was sparged with carbon dioxide in a nitrogen environment overnight to remove the existing hydrogen sulfide. The water sample was then supplemented with 1 mM acetate, trace elements, and vitamins. Fluids (100 mL) were aliquoted into 125 mL glass serum bottles containing a carbon steel 1018 ball bearing. Triplicate experiments were performed. Three bottles were left untreated and three bottles were treated each at a concentration of 80 ppm, 120 ppm, and 150 ppm of the desired chemistry based on the total weight of the sample. Samples were incubated at 37° C. for 6 weeks.
as §1

CC1CN(CN2COC(C)C2)CO1 (stereo not drawn) [MBO, 3,3′-methylenebis[5-methyloxazolidine]]
Average reduction in biogenic sulfide ([1]; MBO 50 ppm): 37.03%
Average Sulfide ([1]; MBO 50 ppm): 4.64 ppm
Average reduction in biogenic sulfide ([1]; MBO 80 ppm): 93.81%
Average Sulfide ([1]; MBO 80 ppm): 0.46 ppm
Test Bioreactor Sulfide ([2]; Day 21 (as printed, between days 30 and 35), dosage of MBO 25 ppm, pH 8.5): 44.6 mg/L
Test Bioreactor Sulfide ([2]; Day 30, dosage of MBO 25 ppm, pH 8.5): 34.9 mg/L
Test Bioreactor Sulfide ([2]; Day 35, dosage of MBO 25 ppm, pH 8.5): 45.7 mg/L
Test Bioreactor Sulfide ([2]; Day 37, dosage of MBO 50 ppm, pH 8.5): 46.2 mg/L
Test Bioreactor Sulfide ([2]; Day 38, dosage of MBO 50 ppm, pH 8.5): 48.7 mg/L
Test Bioreactor Sulfide ([2]; Day 42, dosage of MBO 50 ppm, pH 8.5): 44.8 mg/L
Test Bioreactor Sulfide ([2]; Day 44, dosage of MBO 100 ppm, pH 8.5): 44.2 mg/L
Test Bioreactor Sulfide ([2]; Day 45, dosage of MBO 100 ppm, pH 8.5): 41.0 mg/L
Test Bioreactor Sulfide ([2]; Day 46, dosage of MBO 100 ppm, pH 8.5): 10.3 mg/L
Test Bioreactor Sulfide ([2]; Day 49, dosage of MBO 100 ppm, pH 8.5): 3.1 mg/L
Test Bioreactor Sulfide ([2]; Day 51, dosage of MBO 100 ppm, pH 8.5): 0.7 mg/L
Test Bioreactor Sulfide ([2]; Day 52, dosage of MBO 100 ppm, pH 8.5): 0.5 mg/L
Test Bioreactor Sulfide ([2]; Day 53, dosage of MBO 100 ppm, pH 8.5): 3.1 mg/L
Test Bioreactor Sulfide ([2]; Day 56, dosage of MBO 100 ppm, pH 8.5): 5.3 mg/L
Test Bioreactor Sulfide ([2]; Day 58, dosage of MBO 150 ppm, pH 8.5): 4.9 mg/L
Test Bioreactor Sulfide ([2]; Day 60, dosage of MBO 150 ppm, pH 8.5): 1.0 mg/L
Test Bioreactor Sulfide ([2]; Day 63, dosage of MBO 150 ppm, pH 8.5): 21.5 mg/L
Test Bioreactor Sulfide ([2]; Day 65, dosage of MBO 150 ppm, pH 8.5): 19.9 mg/L
Test Bioreactor Sulfide ([2]; Day 67, dosage of MBO 150 ppm, pH 8.5): 25.7 mg/L
Test Bioreactor Sulfide ([2]; Day 70, dosage of MBO 150 ppm, pH 8.5): 29.1 mg/L
Test Bioreactor Sulfide ([2]; Day 72, dosage of MBO 0 ppm (dosing paused after 150 ppm), pH 8.5): 29.4 mg/L
Test Bioreactor Sulfide ([2]; Day 74, dosage of MBO 0 ppm (dosing paused after 150 ppm), pH 8.5): 21.9 mg/L
Test Bioreactor Sulfide ([2]; Day 77, dosage of MBO 0 ppm (dosing paused after 150 ppm), pH 8.5): 32.0 mg/L
Test Bioreactor Sulfide ([2]; Day 78, dosage of MBO 500 ppm (4 hours batch) + 80 ppm, pH 8.5): 37.2 mg/L
Test Bioreactor Sulfide ([2]; Day 79, dosage of MBO 80 ppm after 500 ppm batch, pH 8.5): 37.8 mg/L
Test Bioreactor Sulfide ([2]; Day 80, dosage of MBO 80 ppm after 500 ppm batch, pH 8.5): 23.0 mg/L
Test Bioreactor Sulfide ([2]; Day 81, dosage of MBO 80 ppm after 500 ppm batch, pH 8.5): 27.7 mg/L
Test Bioreactor Sulfide ([2]; Day 84, dosage of MBO 80 ppm after 500 ppm batch, pH 8.5): 31.8 mg/L
Test Bioreactor Sulfide ([2]; Day 86, dosage of MBO 80 ppm after 500 ppm batch, pH 3.5 (so in the source)): 32.0 mg/L
Test Bioreactor Sulfide ([2]; Day 88, dosage of MBO 0 ppm (dosing paused after 80 ppm), pH 8.5): 29.1 mg/L
Test Bioreactor Sulfide ([2]; Day 91, dosage of MBO 0 ppm (dosing paused after 80 ppm), pH 8.5): 25.6 mg/L
Test Bioreactor Sulfide ([2]; Day 93, dosage of MBO 500 ppm (4 hours batch) + 100 ppm, pH 8.5): 30.7 mg/L
Test Bioreactor Sulfide ([2]; Day 94, dosage of MBO 100 ppm after 500 ppm batch, pH 8.5): 24.1 mg/L
Test Bioreactor Sulfide ([2]; Day 95, dosage of MBO 100 ppm after 500 ppm batch, pH 8.5): 24.2 mg/L
Test Bioreactor Sulfide ([2]; Day 98, dosage of MBO 100 ppm after 500 ppm batch, pH 8.5): 20.3 mg/L
Test Bioreactor Sulfide ([2]; Day 100, dosage of MBO 100 ppm, pH 7.5): 20.1 mg/L
Test Bioreactor Sulfide ([2]; Day 101, dosage of MBO 100 ppm, pH 7.5): 9.9 mg/L
Test Bioreactor Sulfide ([2]; Day 102, dosage of MBO 100 ppm, pH 7.5): 16.6 mg/L
Test Bioreactor Sulfide ([2]; Day 105, dosage of MBO 100 ppm, pH 7.5): 22.5 mg/L
Test Bioreactor Sulfide ([2]; Day 107, dosage of MBO 100 ppm, pH 6.5): 20.2 mg/L
Test Bioreactor Sulfide ([2]; Day 108, dosage of MBO 100 ppm, pH 6.5): 23.4 mg/L
Test Bioreactor Sulfide ([2]; Day 109, dosage of MBO 100 ppm, pH 6.5): 20.9 mg/L
Test Bioreactor Sulfide ([2]; Day 112, dosage of MBO 100 ppm, pH 6.5): 18.2 mg/L
Test Bioreactor Sulfide ([2]; Day 114, dosage of MBO 150 ppm, pH 6.5): 16.3 mg/L
Test Bioreactor Sulfide ([2]; Day 115, dosage of MBO 150 ppm, pH 6.5): 7.7 mg/L
Test Bioreactor Sulfide ([2]; Day 116, dosage of MBO 150 ppm, pH 6.5): 2.9 mg/L
Test Bioreactor Sulfide ([2]; Day 119, dosage of MBO 150 ppm, pH 6.5): 0.7 mg/L
Test Bioreactor Sulfide ([2]; Day 121, dosage of MBO 150 ppm, pH 6.5): 0.5 mg/L
Test Bioreactor Sulfide ([2]; Day 122, dosage of MBO 150 ppm, pH 6.5): 0.5 mg/L
Test Bioreactor Sulfide ([2]; Day 123, dosage of MBO 150 ppm, pH 6.5): 0.5 mg/L
Test Bioreactor Sulfide ([2]; Day 126, dosage of MBO 150 ppm, pH 6.5): 0.5 mg/L
Test Bioreactor Sulfide ([2]; Day 128, dosage of MBO 100 ppm (decreasing increments), pH 6.5): 0.5 mg/L
Test Bioreactor Sulfide ([2]; Day 129, dosage of MBO 100 ppm (decreasing increments), pH 6.5): 0.5 mg/L
Test Bioreactor Sulfide ([2]; Day 130, dosage of MBO 100 ppm (decreasing increments), pH 6.5): 0.5 mg/L
Test Bioreactor Sulfide ([2]; Day 133, dosage of MBO 100 ppm (decreasing increments), pH 6.5): 0.5 mg/L
Test Bioreactor Sulfide ([2]; Day 135, dosage of MBO 80 ppm (decreasing increments), pH 6.5): 0.5 mg/L
Test Bioreactor Sulfide ([2]; Day 136, dosage of MBO 80 ppm (decreasing increments), pH 6.5): 0.5 mg/L
Test Bioreactor Sulfide ([2]; Day 137, dosage of MBO 80 ppm (decreasing increments), pH 6.5): 0.5 mg/L
Test Bioreactor Sulfide ([2]; Day 140, dosage of MBO 80 ppm (decreasing increments), pH 6.5): 0.5 mg/L
Test Bioreactor Sulfide ([2]; Day 141, dosage of MBO 50 ppm (decreasing increments), pH 6.5): 0.5 mg/L
Test Bioreactor Sulfide ([2]; Day 144, dosage of MBO 50 ppm (decreasing increments), pH 6.5): 0.5 mg/L
Test Bioreactor Sulfide ([2]; Day 147, dosage of MBO 50 ppm (decreasing increments), pH 6.5): 0.5 mg/L
Test Bioreactor Sulfide ([2]; Day 150, dosage of MBO 0 ppm (dosing ceased at end of study), pH 6.5): 0.5 mg/L
Test Bioreactor Sulfide ([2]; Day 151, dosage of MBO 0 ppm (dosing ceased at end of study), pH 6.5): 0.5 mg/L
Test Bioreactor Sulfide ([2]; Day 154, dosage of MBO 0 ppm (dosing ceased at end of study), pH 6.5): 0.5 mg/L
sulfide levels in the test bioreactor, lowest reached ([2]; dosage of MBO at 100 ppm, initial decrease, sulfide levels started to increase again afterwards): 0.5 mg/L
sulfide levels in the test bioreactor ([2]; pH 6.5, dosing MBO at 150 ppm, stayed throughout remainder of study through decreasing dosages): 0.5 mg/L
effect on sulfide levels in the test bioreactor ([2]; two high batch dosages of MBO at 500 ppm followed by low continuous dosage at 80 and 100 ppm): did not further decrease sulfide levels
Average Sulfide ([3]; MBO 80 ppm): 0.09 ppm
Average reduction in biogenic sulfide ([3]; MBO 80 ppm): 98.4%
Average Sulfide ([3]; MBO 120 ppm): 0.09 ppm
Average reduction in biogenic sulfide ([3]; MBO 120 ppm): 98.4%
Average Sulfide ([3]; MBO 150 ppm): 0.13 ppm
Average reduction in biogenic sulfide ([3]; MBO 150 ppm): 97.8%
